In general, melting point refers to the temperature, or range, at which the solid turns liquid.

Among the data in patent US6444666B1, “Triazolopyridazine Derivatives for treating anxiety and enhancing cognition” (Merck Sharp & Dohme Ltd., priority 1997, dated 2002) are melting point values, retold here.

With `Cn1ncnc1COc1nn2c(-c3cnccn3)nnc2cc1-c1ccccc1` [Example 2, 6-(2-Methyl-2H-1,2,4-triazol-3-ylmethoxy)-7-phenyl-3-(pyrazin-2-yl)-1,2,4-triazolo[4,3-b]pyridazine], the melting point was 264 °C.
To `c1ccc(-c2cc3nnc(-c4cnccn4)n3nc2OCc2nc[nH]n2)cc1` [Example 3, 7-Phenyl-3-(pyrazin-2-yl)-6-(1H-1,2,4-triazol-3-ylmethoxy)-1,2,4-triazolo[4,3-b]pyridazine] belongs 255 °C.
To `Cc1cc(-c2nnc3cc(C(C)(C)C)c(OCc4ncn(C)n4)nn23)no1` [Example 6, 7-t-Butyl-3-(5-methylisoxazol-3-yl)-6-(1-methyl-1.2 4-triazol-3-yl)methyloxy-1,2,4-triazolo[4,3-b]pyridazine] belongs 221 to 223 °C; to `Cc1cc(-c2nnc3cc(C(C)(C)C)c(OCc4cn(C)nn4)nn23)no1` [Example 7, 7-t-Butyl-3-(5-methylisoxazol-3-yl)-6-(1-methyl-1.2.3-triazol-4-yl)methyloxy-1,2,4-triazolo[4,3-b]pyridazine], 219 to 221 °C.
